Results taken from patent US9073884B2, “Anti-inflammatory and quorum sensing inhibition compounds and methods of making and using them” (The Regents of the University of California, priority 2010, dated 2015).

Assays:
vibrio harveyi = vibrio harveyi assay (quorum sensing inhibition); assay type: cell-based
[1] = test system: Escherichia coli JB525 (E. coli MT102 harboring the gfp plasmid pJBA132); assay: Escherichia coli JB525 assay (quorum sensing inhibition); assay type: cell-based

O=C(/C=C/CCl)O[C@@H]1COC(=O)C1 [Honaucin A]
inhibition of AI-1 and AI-2 mediated quorum sensing (vibrio harveyi): good inhibition
inhibition of AI-1 and AI-2 mediated quorum sensing [1]: good inhibition
